Data from PubChem BioAssay (NCI).
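Grown in 96-well plates, cells were treated for 48 hours with each compound at five concentrations. Insufficient inhibition: endpoint recorded as highest concentration tested. The concentration for 50% growth inhibition is given as GI50. TGI is the concentration that stops growth completely.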

Experiments:
Experiment in all cases: NCI tumour cell line growth inhibition, 48 h
[1] = test system: MALME-3M melanoma
[2] = test system: NCI-H226 lung
[3] = test system: PC-3 prostate
[4] = test system: SK-MEL-5 melanoma
[5] = test system: NCI-H522 lung
[6] = test system: OVCAR-4 ovarian
[7] = test system: TK-10 renal
[8] = test system: SK-OV-3 ovarian
[9] = test system: SNB-75 CNS
[10] = test system: HCT-116 colon
[11] = test system: NCI-H460 lung
[12] = test system: SK-MEL-2 melanoma
[13] = test system: BT-549 breast
[14] = test system: OVCAR-5 ovarian
[15] = test system: SF-539 CNS
[16] = test system: M14 melanoma
[17] = test system: SN12C renal
[18] = test system: A498 renal
[19] = test system: MDA-MB-435
[20] = test system: NCI/ADR-RES ovarian
[21] = test system: HOP-92 NSCLC
[22] = test system: SF-268 CNS
[23] = test system: LOX IMVI melanoma
[24] = test system: COLO 205 colon
[25] = test system: SR leukemia
[26] = test system: U251 CNS
[27] = test system: HOP-62 NSCLC
[28] = test system: HS 578T breast
[29] = test system: EKVX NSCLC
[30] = test system: ACHN renal
[31] = test system: SF-295 CNS
[32] = test system: OVCAR-8 ovarian
[33] = test system: OVCAR-3 ovarian
[34] = test system: SNB-19 CNS
[35] = test system: SW-620 colon
[36] = test system: RXF 393 renal
[37] = test system: UACC-257 melanoma
[38] = test system: HCC-2998 colon
[39] = test system: DU-145 prostate
[40] = test system: KM12 colon
[41] = test system: UO-31 renal
[42] = test system: HL-60(TB) leukemia
[43] = test system: CCRF-CEM leukemia
[44] = test system: A549 NSCLC
[45] = test system: HCT-15 colon
[46] = test system: RPMI-8226 leukemia
[47] = test system: T-47D breast
[48] = test system: HT29 colon
[49] = test system: MOLT-4 leukemia
[50] = test system: 786-0 renal
[51] = test system: MCF7 breast
[52] = test system: CAKI-1 renal
[53] = test system: SK-MEL-28 melanoma
[54] = test system: NCI-H23 lung
[55] = test system: MDA-MB-231 breast
[56] = test system: UACC-62 melanoma

COCCOCCOCCOCCOc1ccc2c(c1)C(=O)c1nc3ncccc3c(=O)n1-2
GI50 [1]: 155 nM | TGI [1]: 339 nM | GI50 [2]: 1650 nM | TGI [2]: 3310 nM | GI50 [3]: 1670 nM | TGI [3]: 16500 nM | GI50 [4]: 158 nM | TGI [4]: 312 nM | GI50 [5]: 1670 nM | TGI [5]: 3300 nM | GI50 [6]: 1740 nM | TGI [6]: 4230 nM | GI50 [7]: 1290 nM | TGI [7]: 2690 nM | GI50 [8]: 2810 nM | TGI [8]: 6990 nM | GI50 [9]: 2070 nM | TGI [9]: 3650 nM | GI50 [10]: 1560 nM | TGI [10]: 4460 nM | GI50 [11]: 400 nM | TGI [11]: 1390 nM | GI50 [12]: 2420 nM | TGI [12]: 6210 nM | GI50 [13]: 1100 nM | TGI [13]: 2300 nM | GI50 [14]: 1780 nM | TGI [14]: 3160 nM | GI50 [15]: 551 nM | TGI [15]: 1710 nM | GI50 [16]: 312 nM | TGI [16]: 1440 nM | GI50 [17]: 1380 nM | TGI [17]: 2910 nM | GI50 [18]: 1770 nM | TGI [18]: 3160 nM | GI50 [19]: 188 nM | TGI [19]: 364 nM | GI50 [20]: 2090 nM | TGI [20]: 6410 nM | GI50 [21]: 8230 nM | TGI [21]: 29500 nM | GI50 [22]: 1540 nM | TGI [22]: 5170 nM | GI50 [23]: 390 nM | TGI [23]: 1620 nM | GI50 [24]: 1880 nM | TGI [24]: 3350 nM | GI50 [25]: 2250 nM | TGI [25]: > 100000 nM | GI50 [26]: 1290 nM | TGI [26]: 2560 nM | GI50 [27]: 744 nM | TGI [27]: 2180 nM | GI50 [28]: 1090 nM | TGI [28]: 4020 nM | GI50 [29]: 1870 nM | TGI [29]: 5280 nM | GI50 [30]: 2640 nM | TGI [30]: 8190 nM | GI50 [31]: 351 nM | TGI [31]: 1400 nM | GI50 [32]: 1570 nM | TGI [32]: 6890 nM | GI50 [33]: 969 nM | TGI [33]: 3390 nM | GI50 [34]: 1280 nM | TGI [34]: 2640 nM | GI50 [35]: 1150 nM | TGI [35]: 2360 nM | GI50 [36]: 2650 nM | TGI [36]: 9260 nM | GI50 [37]: 763 nM | TGI [37]: 2380 nM | GI50 [38]: 1320 nM | TGI [38]: 2790 nM | GI50 [39]: 540 nM | TGI [39]: 1790 nM | GI50 [40]: 1220 nM | TGI [40]: 2710 nM | GI50 [41]: 1530 nM | TGI [41]: 6210 nM | GI50 [42]: 1800 nM | TGI [42]: 5050 nM | GI50 [43]: 2430 nM | TGI [43]: 7400 nM | GI50 [44]: 465 nM | TGI [44]: 2410 nM | GI50 [45]: 1210 nM | TGI [45]: 2600 nM | GI50 [46]: 1860 nM | TGI [46]: 4940 nM | GI50 [47]: 3030 nM | TGI [47]: 9040 nM | GI50 [48]: 1470 nM | TGI [48]: 3700 nM | GI50 [49]: 3610 nM | TGI [49]: > 100000 nM | GI50 [50]: 2170 nM | TGI [50]: 9460 nM | GI50 [51]: 799 nM | TGI [51]: 2200 nM | GI50 [52]: 663 nM | TGI [52]: 2020 nM | GI50 [53]: 765 nM | TGI [53]: 2030 nM | GI50 [54]: 279 nM | TGI [54]: 1180 nM | GI50 [55]: 2930 nM | TGI [55]: 52000 nM | GI50 [56]: 371 nM | TGI [56]: 1070 nM
